# Molecular target: T1, Human 5-lipoxygenase (Homo sapiens, UniProt P09917)
# T1 construct: purchased Cayman 60402; host or cells: insect cells
# T1 sequence (P09917 1-674): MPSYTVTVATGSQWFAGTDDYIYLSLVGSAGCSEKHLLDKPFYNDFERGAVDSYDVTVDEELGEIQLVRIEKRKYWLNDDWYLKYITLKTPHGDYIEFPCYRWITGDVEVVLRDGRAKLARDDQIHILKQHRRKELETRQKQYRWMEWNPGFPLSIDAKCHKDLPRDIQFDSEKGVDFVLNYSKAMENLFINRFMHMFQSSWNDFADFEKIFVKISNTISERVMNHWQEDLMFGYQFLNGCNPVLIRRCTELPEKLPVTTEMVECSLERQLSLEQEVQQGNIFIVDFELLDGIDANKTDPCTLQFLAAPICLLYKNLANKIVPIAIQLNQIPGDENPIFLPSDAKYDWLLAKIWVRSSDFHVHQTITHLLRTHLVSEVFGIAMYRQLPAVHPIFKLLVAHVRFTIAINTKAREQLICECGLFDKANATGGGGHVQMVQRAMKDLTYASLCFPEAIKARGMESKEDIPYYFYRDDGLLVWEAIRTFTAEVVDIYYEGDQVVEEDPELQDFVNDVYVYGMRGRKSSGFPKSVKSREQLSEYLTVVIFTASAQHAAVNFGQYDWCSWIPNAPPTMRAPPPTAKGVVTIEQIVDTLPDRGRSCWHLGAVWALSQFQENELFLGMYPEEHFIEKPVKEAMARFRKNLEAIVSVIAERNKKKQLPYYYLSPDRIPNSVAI
# Experiment: Activity of compounds against 5-LO enzyme (LTB4 measurement and/or fluorescence method)
# Type: biochemical
# Conditions: for inhibition at 10 µM: 5-LO, single concentration of 10 uM in duplicate; for IC50: 6 or 11 point dose response in duplicate
# Description: The activity of compounds against 5-LO were determined by measuring LTB4 (leukotriene B4) levels and/or by a fluorescence method. Both approaches are outlined in more detail below;
# Human 5-lipoxygenase (Cayman, Cat#60402) produced in insect cells was pre-incubated with compound for 15 min at RT in incubation buffer (50 mM Tris-Cl, pH 7.4, 2 mM CaCl2, 0.1 mM ATP, 1% DMSO). The enzymatic reaction was started by adding arachidonic acid to a final concentration of 3 uM. After 5 min of incubation at 37° C., the reaction was stopped by heatinactivation at 80° C. for 5 min. LTB4 levels were quantified by using LTB4 EIA kit (Cayman, Cat#520111) as instructed and/or LTB4 levelswere measured with LC/MS/MS using Quattro Premier™ XE tandem quadrupole mass spectrometer equipped with Acquity UPLC system (Waters, Milford, Mass.). The method was slightly modified as reported previously (Zweifel et al., 2008, Willey et al., 2008, Chappell et al, 2011). Briefly, chromatographic separation was carried out with Acquity UPLC BEH Shield RP18 Column (2.1 mm×50 mm, 1.7 μm particle size, Waters, Milford, Mass.). Sample injection volume was 10 μl, the column temperature was 35° C., the mobile phase A consisted of water with 0.1% formic acid and the mobile phase B consisted of acetonitrile with 0.1% formic acid. Flow rate was 0.4 mL/min and the gradient condition was as follows.
# Relative quantification of LTB4 and LTB4-d4 (Internal Standard) was done using multi reaction monitoring (MRM) of the transitions of m/z 335→195 for LTB4, 339→197 for LTB4-d4 in electrospray ionization (ESI) negative mode. Desolvation temperature was 400° C., source temperature was 130° C. Capillary voltage, cone voltage, and collision voltage were 3.5 kV, 30V, and 20 eV, respectively. Nitrogen was used for desolvation (750 L/h) and cone (50 L/h) gas. Argon was used for collision gas (0.22 ml/min). The dwell time was 10 ms.
# Besides the two methods quantifying LTB4 level, a fluorescence assay measuring 5-HpETE was introduced for high-throughput screening in a 384 well microplate format (Pufahl et al., 2007). For nonspecific ester cleavage of the acetate groups in H2DCFDA, the insect cell lysate expressing human 5-LO (Cayman Cat#60402) was incubated with H2DCFDA (50 mM Tris-Cl, pH 7.5, 2 mM CaCl2, 20 uM H2DCFDA, 500 mU 5-LO per reaction) for 5 minutes. Compound and enzyme mixture were pre-incubated for 5 minutes, and the enzymatic reaction was initiated by addition of ATP and arachidonic acid to a final concentration of 100 uM and 3 uM, respectively. After 5 minutes of incubation, the fluorescence was measured using Spectramax M5 (Molecular Device, Ex/Em=485 nm/530 nm). All steps were carried out at room temperature.
# A total of 378 compounds were initially tested at a single concentration of 10 uM in duplicate with the results summarized in Table 1. From these 378 compounds, 53 compounds plus an additional 25 were selected for confirmation of activity by 6 or 11 point dose response in duplicate with the corresponding IC50 values outlined in Table 2.
SMILES,inhibition at 10 µM,IC50
"CCc1nc2cc(Cl)ccn2c1C(=O)NCc1ccc2oc(-c3ccc(F)cc3)nc2c1 [compound 259, 7-Chloro-2-ethyl-N-((2-(4-fluorophenyl)benzo[d]oxazol-5-yl)methyl)imidazo[1,2-a]pyridine-3-carboxamide]",< 40%,–
"Cc1nc2c(F)cccn2c1C(=O)NCc1ccccc1 [compound 35, N-Benzyl-8-fluoro-2-methylimidazo[1,2-a]pyridine-3-carboxamide]",< 40%,–
"CCc1nc2cc(N3CCN(c4ccc(F)cc4)CC3)ccn2c1C(=O)NCc1ccc(N2CCOCC2)cc1 [compound 256, 2-Ethyl-7-(4-(4-fluorophenyl)piperazin-1-yl)-N-(4-morpholinobenzyl)imidazo[1,2-a]pyridine-3-carboxamide]",< 40%,–
"CCc1nc2ccc(Cl)cn2c1CNCc1ccc(N2CCC(O)CC2)cc1 [compound 340, 1-(4-((((6-chloro-2-ethylimidazo[1,2-a]pyridin-3-yl)methyl)amino)methyl)phenyl)piperidin-4-ol]",< 40%,–
"Cc1nc2ccccn2c1C(=O)Nc1ccncc1 [compound 11, 2-Methyl-N-(pyridin-4-yl)imidazo[1,2-a]pyridine-3-carboxamide]",< 40%,–
"CCc1nc2ccc(Cl)cn2c1C(=O)NCc1ccc(N2CCN(C(=O)Cc3ccc(F)cc3)CC2)cc1 [compound 320, 6-chloro-2-ethyl-N-(4-(4-(2-(4-fluorophenyl)acetyl)piperazin-1-yl)benzyl)imidazo[1,2-a]pyridine-3-carboxamide]",< 40%,–
"Cc1nc2c(C#N)cccn2c1C(=O)NCc1ccccc1 [compound 47, N-Benzyl-8-cyano-2-methylimidazo[1,2-a]pyridine-3-carboxamide]",< 40%,–
"CCc1nc2cc(Cl)ccn2c1C(=O)NCc1ccc(N2CCCCCC2)cc1 [compound 193, N-(4-(Azepan-1-yl)benzyl)-7-chloro-2-ethylimidazo[1,2-a]pyridine-3-carboxamide]",> 69%,> 20 µM
"Cc1nc2ccccn2c1C(=O)O [compound 2, 2-Methylimidazo[1,2-a]pyridine-3-carboxylic acid]",< 40%,–
"CCc1nc2cc(Cl)ccn2c1C(=O)NCc1ccc(N2CC3CC=CCC3C2)cc1 (stereo not drawn) [compound 202, 7-Chloro-N-(4-(3a,4-dihydro-1H-isoindol-2(3H7H,7aH)-yl)benzyl)-2-ethylimidazo[1,2-a]pyridine-3-carboxamide]",40 to 69%,–
"CCc1nc2ccc(Cl)cn2c1CNc1ccc(Oc2ccc(OC(F)(F)F)cc2)cc1 [compound 394, N-((6-chloro-2-ethylimidazo[1,2-a]pyridin-3-yl)methyl)-4-(4-(trifluoromethoxy)-phenoxy)aniline]",–,< 1 µM
"CCc1nc2ccc(Cl)cn2c1CN1CCC(CCc2ccc(F)cc2)CC1 [compound 349, 6-chloro-2-ethyl-3-((4-(4-fluorophenethyl)piperidin-1-yl)methyl)imidazo[1,2-a]pyridine]",40 to 69%,–
"Cc1nc2ccccn2c1C(=O)NCC1CCNCC1 [compound 24, 2-Methyl-N-(piperidin-4-ylmethyl)imidazo[1,2-a]pyridine-3-carboxamide]",< 40%,–

# The next lines start with the values.
inhibition at 10 µM,IC50,SMILES
40 to 69%,–,"CCc1nc2cc(Cl)ccn2c1C(=O)NCc1ccc(-c2ccc(OC)cn2)cc1 [compound 119, 7-Chloro-2-ethyl-N-(4-(5-methoxypyridin-2-yl)benzyl)imidazo[1,2-a]pyridine-3-carboxamide]"
< 40%,–,"CCc1nc2ccc(C)cn2c1C(=O)NCc1ccc(N2CCOCC2)cc1 [compound 315, 2-ethyl-6-methyl-N-(4-morpholinobenzyl)imidazo[1,2-a]pyridine-3-carboxamide]"
< 40%,–,"CCc1nc2ccccn2c1C(=O)NCc1ccc(Oc2ccccc2)cc1 [compound 45, 2-Ethyl-N-(4-phenoxybenzyl)imidazo[1,2-a]pyridine-3-carboxamide]"
40 to 69%,–,"CCc1nc2ccc(C)cn2c1C(=O)NCc1ccc(OC(F)(F)F)cc1 [compound 59, 2-Ethyl-6-methyl-N-(4-(trifluoromethoxy)benzyl)imidazo[1,2-a]pyridine-3-carboxamide]"
< 40%,–,"CCc1nc2ccc(Cl)cn2c1C(=O)NCc1ccc(-c2ccc(C#N)cc2)cc1 [compound 97, 6-Chloro-N-((4′-cyanobiphenyl-4-yl)methyl)-2-ethylimidazo[1,2-a]pyridine-3-carboxamide]"
< 40%,–,"Cc1ccc2nc(C)c(C(=O)NCc3ccccc3)n2c1 [compound 33, N-Benzyl-2,6-dimethylimidazo[1,2-a]pyridine-3-carboxamide]"
40 to 69%,–,"CCc1nc2cc(Cl)ccn2c1C(=O)NCc1ccc(C(C)(C)C)cc1 [compound 92, N-(4-tert-Butylbenzyl)-7-chloro-2-ethylimidazo[1,2-a]pyridine-3-carboxamide]"
40 to 69%,–,"CCc1nc2ccc(Cl)cn2c1C(=O)NCc1ccc(-c2cccc(C)c2)cc1 [compound 76, 6-Chloro-2-ethyl-N-((3′-methylbiphenyl-4-yl)methyl)imidazo[1,2-a]pyridine-3-carboxamide]"
> 69%,1 to 20 µM,"CCc1nc2ccc(Cl)cn2c1C(=O)NCc1ccc(Nc2ccc(OC(F)(F)F)cc2)cc1 [compound 174, 6-Chloro-2-ethyl-N-(4-(4-(trifluoromethoxy)phenylamino)benzyl)imidazo[1,2-a]pyridine-3-carboxamide]"
> 69%,1 to 20 µM,"CCc1nc2ccc(C)cn2c1C(=O)NCc1ccc(Oc2ccccc2)cc1 [compound 58, 2-Ethyl-6-methyl-N-(4-phenoxybenzyl)imidazo[1,2-a]pyridine-3-carboxamide]"
> 69%,1 to 20 µM,"CCc1nc2cc(Cl)ccn2c1C(=O)NCc1ccc(-c2cccc(C)c2)cc1 [compound 86, 7-Chloro-2-ethyl-N-((3′-methylbiphenyl-4-yl)methyl)imidazo[1,2-a]pyridine-3-carboxamide]"
< 40%,–,CCc1nc2cc(Cl)ccn2c1C(=O)NCc1ccc(OCc2ccc(OC(F)(F)F)cc2)cc1 [compound 171]
< 40%,–,CCc1nc2ccc(Cl)cn2c1C(=O)NCc1ccc(OCc2ccc(OC(F)(F)F)cc2)cc1 [compound 170]
40 to 69%,–,"CCc1nc2cc(Cl)ccn2c1C(=O)NCc1ccc(N2CCC(c3ccc(OC(F)(F)F)cc3)CC2)cc1 [compound 268, 7-Chloro-2-ethyl-N-(4-(4-(4-(trifluoromethoxy)phenyl)piperidin-1-yl)benzyl)imidazo[1,2-a]pyridine-3-carboxamide]"
> 69%,1 to 20 µM,"CCc1nc2cc(Cl)ccn2c1C(=O)NCc1ccc(-c2ccc(Cl)cc2C(F)(F)F)cc1 [compound 103, 7-Chloro-N-((4′-chloro-2′-(trifluoromethyl)biphenyl-4-yl)methyl)-2-ethylimidazo[1,2-a]pyridine-3-carboxamide]"

# Source: patent publication US9029389B2 (Institut Pasteur Korea, priority 2011, dated 2015)
